Assays:
[1] = system: MPAEpiC, RAW264.7, FL83B, TKPTS, and HL-1 cells; test: Cell viability assay in normal cell lines; type: cell-based, mouse; conditions: for Cell growth (cell viability assay): assessed every 24 h for 5 days; for Cell growth (cell viability) at lower doses: co-treated with LPS, MTOB 5 mM, NSC95397 10 µM, C646 3 µM, A-485 5 nM, TPCA1 150 nM, BOT64 1 µM
Source text: Mouse pulmonary alveolar epithelial cells (MPAEpiC) were sourced from ScienCell Research Laboratories (Carlsbad, CA, USA; #M3200-57). The mouse macrophage cell line RAW 264.7 (#TIB-71), the mouse liver hepatocyte cell line FL83B (#CRL-2390), and the mouse kidney epithelial-like cell line TKPTS (#CRL-3361) were sourced from the American Type Culture Collection (ATCC) (Manassas, VA, USA). Additionally, the mouse cardiac muscle cell line HL-1 (SCC065) was acquired from Sigma-Aldrich. All cell lines were maintained in Dulbecco’s Modified Eagle Medium (DMEM) (Thermo Fisher; #A1048901) fortified with 10% fetal bovine serum (FBS) (Thermo Fisher; #A5256701) and a combination of 100 U/mL penicillin and streptomycin (Thermo Fisher; #15,140,122). Cells were cultured in a 37 °C incubator with 5% CO2, and the medium was changed every 2–3 days. For targeted gene manipulation, cells were transfected with gene-specific short hairpin RNAs (shRNAs) (Table S1) or plasmids (Table S2). Transfection was facilitated using the Lipofectamine 3000 Transfection Reagent (Thermo Fisher; #L3000001) as per the manufacturer’s recommended protocol.
(§1) For LPS treatment, different knockdown (KD) cell lines—Control^KD, CtBP2^KD, p300^KD, and p65^KD, all derived from MPAEpiC—were seeded in 12-well plates and cultured at 37 °C until reaching 80% confluence. The cells were then treated with 200 ng/mL of LPS for 6 h, washed three times with PBS, and subjected to the required experiments. For experiments involving inhibitors of CtBP2, p300, and NF-κB, as well as the compound PNSC928, MPAEpiC, RAW264.7, FL83B, TKPTS, and HL-1 cells were seeded in 12-well plates and cultured at 37 °C to reach 80% confluence. Cells were then cotreated with 200 ng/mL LPS along with varying concentrations of the following chemicals: MTOB (0, 5, 10, or 20 mM), NSC95397 (0, 10, 20, or 40 µM), C646 (0, 3, 6, or 12 µM), A-485 (0, 5, 10, or 20 nM), TPCA1 (0, 150, 300, or 600 nM), BOT64 (0, 1, 2, or 4 µM), or PNSC928 (0, 11.8, 23.6, or 47.2 µM). After 6 h of treatment, cells were washed three times with PBS before proceeding with further experiments.
Fig. 5 Determination of PNSC928 cytotoxicity and evaluation of PNSC928 effects on the expression levels of CtBP2/p300/NF-κB target genes. (A-E) Cell viability assessment. Five cell lines, including MPAEpiC (A), RAW264.7 (B), FL83B (C), TKPTS (D), and HL-1 (E) were treated with varying concentrations of PNSC928 ([…]). Cell viability was assessed every 24 h for 5 days. (F-I) Effects of PNSC928 on gene expression levels. The RAW264.7 cells were co-treated with LPS and PNSC928 (23.6 and 47.2 µM) for a duration of 6 h. Subsequently, RNA isolation and RT-qPCR analysis were performed to quantify mRNA levels of various genes. (F) The mRNA levels of IL-1B, IL-6, IL-15, IL-18, TNFA, and IFNG. (G) The mRNA levels of CDH1, CDKN1A, CDKN2A, CHRD, PAX6, and BAX. (H) The mRNA levels of NOD2, CCL2, CXCL10, CXCL12, MMP1, and STAT1 mRNA levels, (I) The mRNA levels of MIP2, CCR5, GM-CSF, COX2, and iNOS. n = 3 for each experiment. ns: no significant difference. **P < 0.01; ***P < 0.001
Five cell lines (MPAEpiC, RAW264.7, FL83B, TKPTS, and HL-1) were treated with MTOB (5 and 10 mM), NSC95397 (10 and 20 μM), C646 (3 and 6 μM), A-485 (5 and 10 nM), TCPA1 (150 and 300 nM), and BOT-64 (1 and 2 μM). Cell viability was assessed every 24 hours for 5 days. n=3 for all experiments. *P<0.05.

[2] = system: MPAEpiC and RAW264.7 cells; test: RT-qPCR of CtBP2/p300/NF-κB target genes in MPAEpiC and RAW264.7 cells cotreated with LPS and inhibitors; type: cell-based, mouse; conditions: LPS cotreatment, 6 h; for Expression levels of IL-1B, IL-6, IL-8, IL-15, TNFA, MIP2, CCR5, GM-CSF, VEGF, COX2, and iNOS / Expression of the other studied genes (CtBP2 and p300 targets): NF-κB inhibitors; for Expression of IL-1B, IL-6, IL-15, IL-18, TNFA, NOD2, CCL2, CXCL10, CXCL12, MMP1, and STAT1 / Expression of other genes under investigation (CtBP2 and NF-κB targets): p300 inhibitors; for Expression of IL-1B, IL-6, IL-15, IL-18, TNFA, CDH1, CDKN1A, CDKN2A, CHRD, PAX6, and BAX / Expression of the remaining genes (p300 and NF-κB targets): CtBP2 inhibitors
Description: as §1
RNA was isolated from both cultured cells and mouse lung tissues utilizing the TRIzol Reagent (Invitrogen; Shanghai, China; #15,596,018) in adherence to the manufacturer’s protocol. For each sample, 500 ng of RNA was employed for the synthesis of complementary DNA (cDNA) leveraging the High-Capacity cDNA Reverse Transcription Kit (Thermo Fisher; #4,368,814). Gene expression quantification was carried out using the SYBR GreenER qPCR SuperMix Universal (Thermo Fisher; #1176202K) in combination with the specific primers delineated in Table S3. Subsequent analysis normalized the expression levels to β-Actin, utilizing the 2^−ΔΔCt method.
The RAW264.7 cells were co-treated with LPS and the following compounds: 5 mM MTOB, 10 μM NSC95397, 3 μM C646, 5 nM A-485, 150 nM TPCA1, or 1 μM BOT64 for a duration of 6 hours. Subsequently, RNA isolation and RT-qPCR analysis were performed to quantify mRNA levels of various genes.
The MPAEpiC cells were co-treated with LPS and the following compounds: 5 mM MTOB, 10 μM NSC95397, 3 μM C646, 5 nM A-485, 150 nM TPCA1, or 1 μM BOT64 for a duration of 6 hours. Subsequently, RNA isolation and RT-qPCR analysis were performed to quantify mRNA levels of various genes.

CC(=CCCC1=CCC(C2COC(=O)C2)OC1O)CCC1=C(C)CCCC1(C)C (centres unmarked) [PNSC928]
Cell growth (cell viability assay) ([1]; PNSC928 at 47.2 µM): slight inhibition of cell growth | Cell growth (cell viability assay) ([1]; PNSC928 at lower concentrations (≤ 23.6 µM), all tested cell lines): did not inhibit cell growth

NC(=O)Nc1sc(-c2ccc(F)cc2)cc1C(N)=O [TPCA1]
Cell growth (cell viability) at lower doses [1]: notable inhibition of cell growth | Expression levels of IL-1B, IL-6, IL-8, IL-15, TNFA, MIP2, CCR5, GM-CSF, VEGF, COX2, and iNOS [2]: dose-dependent alteration | Expression of the other studied genes (CtBP2 and p300 targets) [2]: without affecting

CC1(C)CC(=O)c2sc(=Nc3ccccc3)oc2C1 [BOT64]
Cell growth (cell viability) at lower doses [1]: notable inhibition of cell growth | Expression levels of IL-1B, IL-6, IL-8, IL-15, TNFA, MIP2, CCR5, GM-CSF, VEGF, COX2, and iNOS [2]: dose-dependent alteration | Expression of the other studied genes (CtBP2 and p300 targets) [2]: without affecting

CNC(=O)Nc1ccc2c(c1)CC[C@@]21OC(=O)N(CC(=O)N(Cc2ccc(F)cc2)[C@@H](C)C(F)(F)F)C1=O [A-485]
Cell growth (cell viability) at lower doses [1]: notable inhibition of cell growth | Expression of IL-1B, IL-6, IL-15, IL-18, TNFA, NOD2, CCL2, CXCL10, CXCL12, MMP1, and STAT1 [2]: significantly modulated | Expression of other genes under investigation (CtBP2 and NF-κB targets) [2]: no discernible impact

CSCCC(=O)C(=O)O [MTOB]
Cell growth (cell viability) at lower doses [1]: notable inhibition of cell growth | Expression of IL-1B, IL-6, IL-15, IL-18, TNFA, CDH1, CDKN1A, CDKN2A, CHRD, PAX6, and BAX [2]: dose-dependent reversal | Expression of the remaining genes (p300 and NF-κB targets) [2]: remained relatively unchanged

O=C1C(SCCO)=C(SCCO)C(=O)c2ccccc21 [NSC95397]
Cell growth (cell viability) at lower doses [1]: notable inhibition of cell growth | Expression of IL-1B, IL-6, IL-15, IL-18, TNFA, CDH1, CDKN1A, CDKN2A, CHRD, PAX6, and BAX [2]: dose-dependent reversal | Expression of the remaining genes (p300 and NF-κB targets) [2]: remained relatively unchanged

CC1=NN(c2ccc(C(=O)O)cc2)C(=O)/C1=C\c1ccc(-c2cc(C)c(C)cc2[N+](=O)[O-])o1 [C646]
Cell growth (cell viability) at lower doses [1]: notable inhibition of cell growth | Expression of IL-1B, IL-6, IL-15, IL-18, TNFA, NOD2, CCL2, CXCL10, CXCL12, MMP1, and STAT1 [2]: significantly modulated | Expression of other genes under investigation (CtBP2 and NF-κB targets) [2]: no discernible impact

— PMC11191317, “PNSC928, a plant-derived compound, specifically disrupts CtBP2-p300 interaction and reduces inflammation in mice with acute respiratory distress syndrome” (Biology Direct, 2024)
